# Experimental data published in ChEMBL document CHEMBL4325859, “Research advances on anticancer activities of matrine and its derivatives: An updated overview” (Eur J Med Chem, 2019).
# What was measured:
# [1] = Growth inhibition of human GRC1 cells at 0.3 g/L after 48 hrs by MTT assay relative to control; assay type: functional; settings: read-out: GI
# KYSE-150 cell line [2] = assay: Antiproliferative activity against human KYSE-150 cells assessed as cell viability at 2 mg/ml after 24 hrs by MTT assay relative to control; assay type: functional; settings: KYSE-150, 24 h, read-out: Activity
# HepG2 [3] = assay: Induction of apoptosis in human HepG2 cells at 0.5 mg/ml by Annexin V-FITC/propidium iodide staining based flow cytometry (reference value: 0.14%); assay type: functional
# A549 = assay: Antiproliferative activity against human A549 cells at 1 mg/ml relative to control; assay type: functional
# RPMI-8226 [4] = assay: Growth inhibition of human RPMI8226 cells at 500 mg/L after 48 hrs by MTT assay relative to control; assay type: functional; settings: RPMI-8226, 48 h, read-out: GI
# LoVo = assay: Antiproliferative activity against human LoVo cells after 72 hrs by MTT assay; assay type: functional, cell-based
# 4T1 = assay: Antiproliferative activity against mouse 4T1 cells after 48 hrs by MTT assay; assay type: functional, cell-based; settings: 4T1, 48 h
# SAOS-2 = assay: Growth inhibition of human Saos2 cells at 3.2 mg/ml after 48 hrs by MTT assay relative to control; assay type: functional; settings: SAOS-2, 48 h, read-out: GI
# UMR108 [5] = assay: Growth inhibition of rat UMR108 cells assessed as cell proliferation at 1 mg/ml after 72 hrs by MTT assay (reference value: 0.403 +/- 0.009%); assay type: functional; settings: UMR108, 72 h, read-out: Activity
# UMR108 [6] = assay: Growth inhibition of rat UMR108 cells assessed as cell proliferation at 1 mg/ml after 48 hrs by MTT assay (reference value: 0.404 +/- 0.008%); assay type: functional; settings: UMR108, 48 h, read-out: Activity
# MG-63 = assay: Growth inhibition of human MG63 cells at 3.2 mg/ml after 48 hrs by MTT assay relative to control; assay type: functional; settings: MG-63, 48 h, read-out: GI
# UMR108 [7] = assay: Growth inhibition of rat UMR108 cells assessed as cell proliferation at 1.5 mg/ml after 72 hrs by MTT assay (reference value: 0.403 +/- 0.009%); assay type: functional; settings: UMR108, 72 h, read-out: Activity
# [8] = Antiproliferative activity against human GBC-SD cells after 24 hrs by MTT assay; assay type: functional, cell-based
# [9] = Growth inhibition of human GRC1 cells at 1 g/L after 72 hrs by MTT assay relative to control; assay type: functional; settings: read-out: GI
# UMR108 [10] = assay: Growth inhibition of rat UMR108 cells assessed as cell proliferation at 0.5 mg/ml after 24 hrs by MTT assay (reference value: 0.405 +/- 0.007%); assay type: functional; settings: UMR108, 24 h, read-out: Activity
# RPMI-8226 [11] = assay: Induction of apoptosis in human RPMI8226 cells at 500 mg/L after 48 hrs by Annexin V/propidium iodide staining based flow cytometry (reference value: 3.02 +/- 1.19%); assay type: functional
# HT-29 [12] = assay: Growth inhibition of human HT-29 cells at 1 mg/ml by MTT assay relative to control; assay type: functional; settings: read-out: GI
# BXPC-3 [13] = assay: Induction of apoptosis in human BxPC3 cells at 0.75 mg/ml by flow cytometry (reference value: 2.81%); assay type: functional
# BXPC-3 [14] = assay: Antiproliferative activity against human BxPC3 cells after 72 hrs by MTT assay; assay type: functional, cell-based; settings: BXPC-3, 72 h
# [15] = Growth inhibition of human GRC1 cells at 0.8 g/L after 48 hrs by MTT assay relative to control; assay type: functional; settings: read-out: GI
# HT-29 [16] = assay: Growth inhibition of human HT-29 cells at 32 ml/L after 24 hrs by MTT assay relative to control; assay type: functional
# HT-29 [17] = assay: Synergistic growth inhibition of human HT-29 cells at 0.5 mg/ml cotreated with 2.5 ug/ml irinotecan by MTT assay relative to control; assay type: functional
# HT-29 [18] = assay: Growth inhibition of human HT-29 cells at 16 ml/L after 48 hrs by MTT assay relative to control; assay type: functional
# D341 cell line [19] = assay: Growth inhibition of human D341 cells at 0.5 mg/ml after 72 hrs by CCK8 assay relative to control; assay type: functional; settings: D341, 72 h, read-out: GI
# M21 [20] = assay: Growth inhibition of human M21 cells assessed as cell viability at 5 mg/ml after 48 hrs by MTT assay (reference value: 98%); assay type: functional; settings: M21, 48 h, read-out: Activity
# PANC-1 [21] = assay: Antiproliferative activity against human PANC1 cells by MTT assay; assay type: functional, cell-based
# RD = assay: Induction of apoptosis in human RD cells at 0.5 mg/ml after 24 hrs by Annexin V-FITC/propidium iodide staining based flow cytometry relative to control; assay type: functional
# C-33-A = assay: Antiproliferative activity against human C33A cells after 48 hrs by CCK8 assay; assay type: functional, cell-based
# PANC-1 [22] = assay: Induction of apoptosis in human PANC1 cells at 0.75 mg/ml by flow cytometry (reference value: 4.13%); assay type: functional
# HepG2 [23] = assay: Antiproliferative activity against human HepG2 cells at 1 mg/ml after 48 hrs by MTT assay relative to control; assay type: functional
# SGC-7901 = assay: Growth inhibition of human SGC7901 cells at 60 mg/ml after 72 hrs by MTT assay relative to control; assay type: functional; settings: SGC-7901, 72 h, read-out: GI
# HT-29 [24] = assay: Growth inhibition of human HT-29 cells at 16 ml/L after 24 hrs by MTT assay relative to control; assay type: functional
# PC-3 = assay: Induction of apoptosis in human PC3 cells assessed as late apoptotic cells at […] (reference value: 2.5%); assay type: functional
# DU-145 = assay: Growth inhibition of human DU145 cells at 6 g/L after 72 hrs relative to control; assay type: functional; settings: DU-145, 72 h, read-out: GI
# M21 [25] = assay: Induction of apoptosis in human M21 cells at 0.2 mg/ml after 48 hrs by Annexin V-FITC/propidium iodide staining based flow cytometry relative to control; assay type: functional
# D341 cell line [26] = assay: Induction of apoptosis in human D341 cells at 0.5 to 2 mg/ml after 24 to 72 hrs by Annexin V-FITC/propidium iodide staining based flow cytometry (reference value: 5.74 +/- 0.09%); assay type: functional
# T-24 = assay: Antiproliferative activity against human T24 cells after 48 hrs by CCK8 assay; assay type: functional, cell-based; settings: T-24, 48 h
# D341 cell line [27] = assay: Growth inhibition of human D341 cells at 2 mg/ml after 24 hrs by CCK8 assay relative to control; assay type: functional; settings: D341, 24 h, read-out: GI
# HL-60 = assay: Antiproliferative activity against human HL60 cells after 24 hrs by MTT assay; assay type: functional, cell-based; settings: HL-60, 24 h
# HepG2 [28] = assay: Induction of apoptosis in human HepG2 cells at 2 mg/ml by Annexin V-FITC/propidium iodide staining based flow cytometry (reference value: 0.14%); assay type: functional
# KYSE-150 cell line [29] = assay: Antiproliferative activity against human KYSE-150 cells assessed as cell viability at 1 mg/ml after 24 hrs by MTT assay relative to control; assay type: functional; settings: KYSE-150, 24 h, read-out: Activity
# CCRF-CEM = assay: Antiproliferative activity against human CCRF-CEM cells after 48 hrs by WST1 assay; assay type: functional, cell-based
compound,measurement,setting,value
O=C1CCC[C@@H]2[C@H]3CCCN4CCC[C@@H](CN12)[C@@H]34 [MATRINE],inhibition of growth at 300 µg/mL,[1],8.8%
same,viability at 2000 µg/mL,KYSE-150 cell line [2],53.7%
same,Activity,HepG2 [3],28.91%
same,Activity,A549,52.68%
same,inhibition of growth at 500 µg/mL,RPMI-8226 [4],17.9%
same,IC50,LoVo,1.66 mM
same,IC50,4T1,1110 µg/mL
same,inhibition of growth at 3200 µg/mL,SAOS-2,70%
same,growth at 1000 µg/mL,UMR108 [5],0.195%
same,growth at 1000 µg/mL,UMR108 [6],0.249%
same,inhibition of growth at 3200 µg/mL,MG-63,86%
same,growth at 1500 µg/mL,UMR108 [7],0.147%
same,IC50,[8],3.6 mM
same,inhibition of growth at 1000 µg/mL,[9],29.2%
same,growth at 500 µg/mL,UMR108 [10],0.324%
same,Activity,RPMI-8226 [11],9.75%
same,inhibition of growth at 1000 µg/mL,HT-29 [12],35.9%
same,Activity,BXPC-3 [13],48.83%
same,IC50,BXPC-3 [14],2.94 mM
same,inhibition of growth at 800 µg/mL,[15],23.1%
same,growth inhibition (GI),HT-29 [16],71.62%
same,growth inhibition (GI),HT-29 [17],57.25%
same,growth inhibition (GI),HT-29 [18],75.75%
same,inhibition of growth at 500 µg/mL,D341 cell line [19],12.7%
same,viability at 5000 µg/mL,M21 [20],20%
same,IC50,PANC-1 [21],0.0286 mM
same,Activity,RD,22.8%
same,IC50,C-33-A,5.92 mM
same,Activity,PANC-1 [22],24.56%
same,Activity,HepG2 [23],14.81%
same,inhibition of growth at 60000 µg/mL,SGC-7901,40%
same,growth inhibition (GI),HT-29 [24],59.35%
same,Activity,PC-3,20.5%
same,inhibition of growth at 6000 µg/mL,DU-145,90%
same,Activity,M21 [25],24.1%
same,Activity,D341 cell line [26],56.1%
same,IC50,T-24,4.6 mM
same,inhibition of growth at 2000 µg/mL,D341 cell line [27],38%
same,IC50,HL-60,0.00366 mM
same,Activity,HepG2 [28],38.8%
same,viability at 1000 µg/mL,KYSE-150 cell line [29],69.8%
same,IC50,CCRF-CEM,9.67 mM
